# Data: PMC9823191, “Production, characterization and techno-economic evaluation of Aspergillus fusant L-asparaginase” (AMB Express, 2023)
# System: T1, Fusant-06 L-ASNase
# T1 construct: native extracellular enzyme from fusant fermentation broth; PEG/citrate ATPS then Sephadex G-100; may be recombined from both parents
# Assay: ammonia release (Imada assay); Lineweaver-Burk plot
# Type: biochemical
# Conditions: L-asparagine 0.005–1.28 mM; 5 µg/mL (0.043 µM) enzyme; optimum conditions (pH and temperature not stated for the kinetics)
compound,measurement,value
NC(=O)C[C@H](N)C(=O)O [L-asparagine],Km,66.7 µM
